Tests used:
[1] = target: T1, glutamate cysteine ligase (GCL) (Homo sapiens, UniProt P48506); conditions: after brain ischemia/reperfusion, in the presence of BSO; cited from earlier work
T1 sequence (P48506 1-637): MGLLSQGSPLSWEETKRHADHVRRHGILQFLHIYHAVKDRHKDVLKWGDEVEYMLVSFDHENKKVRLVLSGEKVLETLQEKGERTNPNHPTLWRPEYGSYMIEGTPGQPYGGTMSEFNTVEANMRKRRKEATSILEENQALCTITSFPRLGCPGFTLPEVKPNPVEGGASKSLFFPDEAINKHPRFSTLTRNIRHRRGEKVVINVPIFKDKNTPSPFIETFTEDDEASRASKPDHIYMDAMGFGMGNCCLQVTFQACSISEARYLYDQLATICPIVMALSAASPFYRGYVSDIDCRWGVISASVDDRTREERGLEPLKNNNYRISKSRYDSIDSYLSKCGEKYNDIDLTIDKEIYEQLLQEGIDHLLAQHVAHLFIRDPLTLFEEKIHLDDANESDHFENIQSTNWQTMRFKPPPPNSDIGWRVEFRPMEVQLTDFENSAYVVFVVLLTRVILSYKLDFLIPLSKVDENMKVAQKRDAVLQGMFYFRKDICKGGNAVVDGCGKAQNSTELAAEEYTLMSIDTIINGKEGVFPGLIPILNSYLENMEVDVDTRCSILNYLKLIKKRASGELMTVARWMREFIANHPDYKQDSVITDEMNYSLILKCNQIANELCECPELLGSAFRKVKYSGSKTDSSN
T1 sequence (P48507 1-274 partner): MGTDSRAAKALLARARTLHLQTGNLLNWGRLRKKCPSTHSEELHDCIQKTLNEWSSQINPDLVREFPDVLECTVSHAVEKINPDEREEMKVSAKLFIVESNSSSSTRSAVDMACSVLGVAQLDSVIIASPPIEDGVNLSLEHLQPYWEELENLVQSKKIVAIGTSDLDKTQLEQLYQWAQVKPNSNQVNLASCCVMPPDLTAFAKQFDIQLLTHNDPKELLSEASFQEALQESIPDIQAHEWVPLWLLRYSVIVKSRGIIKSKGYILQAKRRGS

[2] = test system: brain GSH and cysteine contents; experiment: Brain GSH and cysteine by HPLC; format: in vivo, mouse; conditions: vehicle mice given BSO, inhibition of GSH synthesis
From the text: Four-week-old male C57BL/6J mice, weighing 18-20 g, were purchased from Jackson Laboratory. These mice were maintained at the Animal Facility of the Louisiana State University Health Sciences Center—Shreveport. Animal care and use in the experiments follow the guidelines in the Guide for the Care and Use of Laboratory Animals, published by the US National Institutes of Health. Following adaptation for 1 week, the mice were divided randomly into 4 groups: non-treated sham operation group (NT-sham group, n=6), non-treated I/R group (NT-I/R group, n=5), vehicle I/R group (Veh-I/R group, n=24), and streptozotocin I/R group (STZ-I/R group, n=19). […] On day 7, mice whose plasma glucose was more than 300 mg/dl were deemed to be diabetic. From diabetes onset at week 1, a group of diabetic mice were given 0.2 mM NAC in the drinking water for 3 weeks (n=3; a total of 4 weeks diabetes, 3 weeks NAC) or 1 week (n=9; a total of 2 weeks diabetes, 1 week NAC). Veh-I/R mice were injected with citrate buffer for consecutive 5 days, and a group of Veh-treated mice were given 0.2 mM NAC for 2 weeks in the drinking water before the ischemia operation (Veh+NAC group, n=8). Another Veh-treated mice were injected (intraperitoneally, 12 hr interval) with 0.5M BSO 24 h before the ischemia operation and during the 24 h reperfusion period (Veh+BSO group, n=10). All mice were 9 weeks old at sacrifice.
Tissue contents of GSH, cysteine and γGC were determined by high-performance liquid chromatography (HPLC). […] Separation of GSH, cysteine and γGC derivatives whose peaks were detected at 365 nm wavelength was performed on a 250×4.6-mm Alltech Lichrosorb NH2 10 μm anion-exchange column. GSH, cysteine and γGC contents were quantified by comparison to standards derivatized in the same manner. Protein pellets were dissolved in 1 M NaOH for protein quantitation and GSH, cysteine and γGC concentrations were expressed as nanomoles per mg protein.

[3] = test system: human brain microvascular endothelial cell; experiment: Endothelial barrier permeability by transendothelial electrical resistance; format: cell-based; conditions: MG alone
Procedure: Moreover, treatment with 100 μM MG in rat thoracic aortic rings for 24 h decreases acetylcholine-induced vascular relaxation via a reduction in p-eNOS (Ser1177) and p-AMPKα (Thr172). MG can reduce endothelial angiogenesis through RAGE-mediated, ONOO(^−)-dependent and autophagy-induced VEGFR2 degradation. […] This is exacerbated by GSH synthesis inhibition and prevented by NAC. The enhanced MG concentration in diabetic patients can also directly contribute to the platelet dysfunction associated with diabetes. Platelet dysfunction is characterized by hyperaggregability and reduced thrombus stability via potentiating thrombin-induced platelet aggregation and dense granule release, but inhibiting platelet spreading on fibronectin and collagen. Given that endothelial dysfunction and enhanced platelet activation could promote stroke, these studies indicate that MG can contribute to ischemic brain injury.

[4] = test system: rat thoracic aortic rings; conditions: 100 μM MG for 24 h; cited from earlier work
Akita diabetic mouse = experiment: Akita model: platelet-neutrophil aggregates and thrombosis onset and cessation; format: in vivo; conditions: Akita diabetic mice, insulin treatment
From the text: FIGS. 28A-28C are three bar graphs showing percent platelet-neutrophil aggregate formation (FIG. 28A), time to onset of thrombosis (FIG. 28B), and time to cessation of thrombosis (FIG. 28C) for Akita non-diabetic mouse, Akita diabetic mouse, Akita diabetic mouse plus insulin, and Akita diabetic mouse plus insulin and NAC; and
Akita model: like STZ model, shown in FIGS. 28A-28C percent platelet-neutrophil aggregate formation is increased, and time to onset and cessation in thrombosis are accelerated in arterioles and venules. Again this reiterates that the effects of diabetes may be “global” rather than confined to one type/cause of diabetes. […] The data evidences that glucose control, which is the current treatment, is not completely effective and that co-treatment with NAC is very effective. […] It appears that insulin and NAC are additive/synergistic.

Molecule: CCCCS(=N)(=O)CCC(N)C(=O)O [BSO, L-buthionine sulfoximine]
- brain infarction and edema [1]: exacerbated further
- brain cysteine levels [2]: higher free cysteine levels

Molecule: CC(=O)C=O [MG, Methylglyoxal]
- endothelial barrier permeability (loss of transendothelial electrical resistance) [3]: increase human brain microvascular endothelial cell barrier permeability
- acetylcholine-induced vascular relaxation [4]: decreases

Molecule: insulin
- platelet-neutrophil aggregate formation (Akita diabetic mouse): reversal
- thrombosis cessation time (time to complete occlusion of the vessel) (Akita diabetic mouse): did not correct
- thrombosis onset time in arterioles (Akita diabetic mouse): reversal
- thrombosis onset time in venules (Akita diabetic mouse): did not correct

— patent US20180036270A1, “A METHOD OF PROTECTING AGAINST CARBONYL STRESS INDUCED ISCHEMIA-REPERFUSION INJURY IN THE DIABETIC BRAIN VIA ADMINISTRATION OF N-ACETYLCYSTEINE” (Board of Supervisors of Louisiana State University and …, priority 2015, published 2018)
